Measurements taken from ChEMBL document CHEMBL4507265 (2021).

Key:
[1] = target: Mitogen-activated protein kinase 12 (Homo sapiens) (UniProt P53778); details: Compound concentration 1000.0 nM
[2] = target: T1, 5-hydroxytryptamine receptor 1A (Homo sapiens) (UniProt P08908); details: Compound concentration 10.0 uM
T1 sequence (whole entry): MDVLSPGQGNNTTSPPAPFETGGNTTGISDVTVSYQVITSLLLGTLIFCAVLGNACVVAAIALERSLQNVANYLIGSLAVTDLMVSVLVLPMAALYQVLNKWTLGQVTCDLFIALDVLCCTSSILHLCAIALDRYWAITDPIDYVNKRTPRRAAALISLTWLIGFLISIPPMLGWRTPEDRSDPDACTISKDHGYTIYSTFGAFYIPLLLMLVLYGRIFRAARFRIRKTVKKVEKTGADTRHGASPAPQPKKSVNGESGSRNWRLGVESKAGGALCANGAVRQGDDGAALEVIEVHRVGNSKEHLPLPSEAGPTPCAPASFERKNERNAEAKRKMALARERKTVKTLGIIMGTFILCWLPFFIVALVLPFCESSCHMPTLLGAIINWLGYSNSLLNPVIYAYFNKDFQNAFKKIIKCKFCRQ

[3] = target: Myosin light chain kinase, smooth muscle (Homo sapiens) (UniProt Q15746); details: Compound concentration 1000.0 nM
[4] = test system: Tyrosine-protein kinase ABL1 (Homo sapiens), P00519 [F317I]; details: Compound concentration 1000.0 nM
[5] = test system: Mast/stem cell growth factor receptor Kit (Homo sapiens), P10721 [L576P]; details: Compound concentration 1000.0 nM
Sequence of Mast/stem cell growth factor receptor Kit (Homo sapiens), P10721 [L576P] (P10721 whole entry L576P): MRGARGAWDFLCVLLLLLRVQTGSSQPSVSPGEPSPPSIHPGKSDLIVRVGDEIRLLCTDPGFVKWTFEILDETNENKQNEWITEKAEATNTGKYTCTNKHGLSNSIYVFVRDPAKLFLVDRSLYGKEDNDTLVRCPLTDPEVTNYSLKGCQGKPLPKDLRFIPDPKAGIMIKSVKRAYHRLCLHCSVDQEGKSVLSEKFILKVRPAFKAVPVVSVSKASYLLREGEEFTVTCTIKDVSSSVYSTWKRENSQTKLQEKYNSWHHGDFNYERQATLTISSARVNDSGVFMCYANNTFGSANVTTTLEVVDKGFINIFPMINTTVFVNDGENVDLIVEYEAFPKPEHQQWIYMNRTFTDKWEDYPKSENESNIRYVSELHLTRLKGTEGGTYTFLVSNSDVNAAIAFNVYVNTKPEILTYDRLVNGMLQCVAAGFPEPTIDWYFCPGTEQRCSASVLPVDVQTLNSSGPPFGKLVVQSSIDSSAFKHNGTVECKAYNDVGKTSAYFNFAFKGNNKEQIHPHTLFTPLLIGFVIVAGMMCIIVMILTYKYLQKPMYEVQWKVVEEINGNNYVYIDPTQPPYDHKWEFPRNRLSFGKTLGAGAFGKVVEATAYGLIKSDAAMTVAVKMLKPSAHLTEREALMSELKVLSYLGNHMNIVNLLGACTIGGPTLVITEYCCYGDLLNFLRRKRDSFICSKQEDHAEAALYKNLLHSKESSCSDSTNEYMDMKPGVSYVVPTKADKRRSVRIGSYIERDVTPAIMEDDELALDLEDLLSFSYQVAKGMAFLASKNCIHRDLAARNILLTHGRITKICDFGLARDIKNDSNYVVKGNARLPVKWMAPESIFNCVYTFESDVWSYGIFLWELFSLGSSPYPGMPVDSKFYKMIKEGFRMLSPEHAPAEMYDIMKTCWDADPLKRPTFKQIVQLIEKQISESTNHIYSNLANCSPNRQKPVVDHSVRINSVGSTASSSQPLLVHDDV

[6] = target: Serine/threonine-protein kinase Nek5 (Homo sapiens) (UniProt Q6P3R8); details: Compound concentration 1000.0 nM
Sequence of Serine/threonine-protein kinase Nek5 (Homo sapiens) (Q6P3R8 whole entry): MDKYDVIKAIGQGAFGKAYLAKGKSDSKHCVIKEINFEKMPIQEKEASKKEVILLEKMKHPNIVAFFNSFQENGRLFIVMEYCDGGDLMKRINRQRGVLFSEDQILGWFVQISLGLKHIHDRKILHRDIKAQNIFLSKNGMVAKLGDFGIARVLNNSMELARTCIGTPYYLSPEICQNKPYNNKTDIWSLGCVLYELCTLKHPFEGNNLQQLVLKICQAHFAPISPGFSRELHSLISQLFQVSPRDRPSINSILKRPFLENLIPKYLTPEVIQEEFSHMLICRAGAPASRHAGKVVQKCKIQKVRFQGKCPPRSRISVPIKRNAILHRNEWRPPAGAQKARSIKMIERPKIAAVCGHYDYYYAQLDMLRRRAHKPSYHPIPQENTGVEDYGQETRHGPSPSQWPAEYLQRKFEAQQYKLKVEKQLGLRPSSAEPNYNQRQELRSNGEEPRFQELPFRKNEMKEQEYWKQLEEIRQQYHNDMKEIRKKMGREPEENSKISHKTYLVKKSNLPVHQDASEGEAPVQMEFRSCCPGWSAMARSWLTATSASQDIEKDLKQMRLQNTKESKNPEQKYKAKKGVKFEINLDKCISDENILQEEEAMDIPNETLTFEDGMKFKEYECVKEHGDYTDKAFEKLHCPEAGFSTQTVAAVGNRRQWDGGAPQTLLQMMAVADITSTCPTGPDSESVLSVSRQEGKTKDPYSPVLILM

[7] = target: Cyclin-dependent kinase 8 (Homo sapiens) (UniProt P49336); details: Compound concentration 1000.0 nM
[8] = test system: Serine/threonine-protein kinase B-raf (Homo sapiens), P15056 [V600E]; details: Compound concentration 1000.0 nM
Sequence of Serine/threonine-protein kinase B-raf (Homo sapiens), P15056 [V600E] (P15056 whole entry V600E): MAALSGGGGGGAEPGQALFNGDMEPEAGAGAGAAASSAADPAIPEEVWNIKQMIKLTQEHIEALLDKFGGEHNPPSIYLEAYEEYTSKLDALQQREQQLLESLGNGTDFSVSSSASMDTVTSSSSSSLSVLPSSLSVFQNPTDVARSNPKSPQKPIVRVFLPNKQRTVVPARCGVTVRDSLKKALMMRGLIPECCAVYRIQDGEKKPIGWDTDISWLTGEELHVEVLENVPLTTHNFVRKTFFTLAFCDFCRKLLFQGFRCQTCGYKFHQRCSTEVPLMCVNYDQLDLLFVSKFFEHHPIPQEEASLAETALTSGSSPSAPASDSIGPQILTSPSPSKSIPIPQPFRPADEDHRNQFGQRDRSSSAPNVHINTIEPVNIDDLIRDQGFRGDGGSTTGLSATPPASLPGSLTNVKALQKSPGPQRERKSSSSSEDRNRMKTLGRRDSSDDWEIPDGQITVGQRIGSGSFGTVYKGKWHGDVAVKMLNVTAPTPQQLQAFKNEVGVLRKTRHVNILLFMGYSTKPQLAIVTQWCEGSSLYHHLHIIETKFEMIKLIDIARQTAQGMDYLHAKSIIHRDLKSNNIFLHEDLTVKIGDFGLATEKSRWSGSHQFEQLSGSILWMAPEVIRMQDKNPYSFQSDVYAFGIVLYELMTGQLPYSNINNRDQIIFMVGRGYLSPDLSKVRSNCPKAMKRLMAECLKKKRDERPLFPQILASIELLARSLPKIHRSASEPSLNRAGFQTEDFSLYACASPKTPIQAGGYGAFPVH

[9] = test system: Mast/stem cell growth factor receptor Kit (Homo sapiens), P10721 [V559D,T670I]; details: Compound concentration 1000.0 nM
Sequence of Mast/stem cell growth factor receptor Kit (Homo sapiens), P10721 [V559D,T670I] (P10721 whole entry V559D/T670I): as the sequence (P10721 whole entry L576P) above, with V559D, P576L, T670I counted along it

[10] = target: Muscarinic acetylcholine receptor M5 (Homo sapiens) (UniProt P08912); details: Compound concentration 10.0 uM
Sequence of Muscarinic acetylcholine receptor M5 (Homo sapiens) (P08912 whole entry): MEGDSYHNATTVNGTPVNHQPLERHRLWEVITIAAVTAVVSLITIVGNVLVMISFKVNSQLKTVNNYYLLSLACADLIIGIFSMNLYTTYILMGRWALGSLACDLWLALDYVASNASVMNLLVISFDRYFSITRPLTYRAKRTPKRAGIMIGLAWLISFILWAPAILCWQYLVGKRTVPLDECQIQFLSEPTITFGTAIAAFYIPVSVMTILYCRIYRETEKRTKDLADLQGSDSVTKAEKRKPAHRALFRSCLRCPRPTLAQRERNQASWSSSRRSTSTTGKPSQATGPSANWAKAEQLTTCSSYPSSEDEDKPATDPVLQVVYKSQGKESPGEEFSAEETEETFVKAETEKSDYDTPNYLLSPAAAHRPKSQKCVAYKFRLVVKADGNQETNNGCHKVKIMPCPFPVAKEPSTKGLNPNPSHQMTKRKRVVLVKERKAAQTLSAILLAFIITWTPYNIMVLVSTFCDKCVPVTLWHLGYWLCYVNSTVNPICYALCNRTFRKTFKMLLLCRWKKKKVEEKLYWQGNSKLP

[11] = target: Epidermal growth factor receptor (Homo sapiens) (UniProt P00533); details: Compound concentration 1000.0 nM
[12] = target: Serine/threonine-protein kinase SIK2 (Homo sapiens) (UniProt Q9H0K1); details: Compound concentration 1000.0 nM
Sequence of Serine/threonine-protein kinase SIK2 (Homo sapiens) (Q9H0K1 whole entry, looked up): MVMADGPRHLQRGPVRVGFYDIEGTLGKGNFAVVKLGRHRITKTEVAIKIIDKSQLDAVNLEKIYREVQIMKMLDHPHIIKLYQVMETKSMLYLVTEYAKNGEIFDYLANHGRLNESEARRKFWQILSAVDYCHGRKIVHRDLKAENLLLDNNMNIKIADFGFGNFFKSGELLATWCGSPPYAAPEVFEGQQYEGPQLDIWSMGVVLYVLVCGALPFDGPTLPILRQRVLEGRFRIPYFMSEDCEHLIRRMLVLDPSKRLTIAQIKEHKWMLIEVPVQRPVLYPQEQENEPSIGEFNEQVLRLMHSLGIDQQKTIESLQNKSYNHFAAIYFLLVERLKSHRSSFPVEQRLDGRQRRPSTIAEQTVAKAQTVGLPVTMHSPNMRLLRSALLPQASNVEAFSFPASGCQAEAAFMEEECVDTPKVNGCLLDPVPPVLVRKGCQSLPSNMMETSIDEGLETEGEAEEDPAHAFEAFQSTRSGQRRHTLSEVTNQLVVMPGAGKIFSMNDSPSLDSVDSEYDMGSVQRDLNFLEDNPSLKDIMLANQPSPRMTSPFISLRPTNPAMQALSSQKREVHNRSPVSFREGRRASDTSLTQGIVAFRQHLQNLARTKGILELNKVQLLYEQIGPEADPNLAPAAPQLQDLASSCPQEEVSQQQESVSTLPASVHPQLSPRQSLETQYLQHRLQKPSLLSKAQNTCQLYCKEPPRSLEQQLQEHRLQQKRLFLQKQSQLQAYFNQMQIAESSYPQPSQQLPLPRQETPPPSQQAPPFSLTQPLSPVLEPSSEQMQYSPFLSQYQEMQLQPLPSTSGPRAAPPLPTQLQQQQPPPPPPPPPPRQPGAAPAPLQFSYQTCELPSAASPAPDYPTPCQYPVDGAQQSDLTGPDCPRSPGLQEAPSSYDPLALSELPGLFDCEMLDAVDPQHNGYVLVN

[13] = target: Vascular endothelial growth factor receptor 1 (Homo sapiens) (UniProt P17948); details: Compound concentration 1000.0 nM
[14] = target: 5-hydroxytryptamine receptor 3A (Homo sapiens) (UniProt P46098); details: Compound concentration 10.0 uM
[15] = target: Wee1-like protein kinase 2 (Homo sapiens) (UniProt P0C1S8); details: Compound concentration 1000.0 nM
[16] = target: Ephrin type-A receptor 5 (Homo sapiens) (UniProt P54756); details: Compound concentration 1000.0 nM
[17] = target: Hormonally up-regulated neu tumor-associated kinase (Homo sapiens) (UniProt P57058); details: Compound concentration 1000.0 nM
[18] = target: Dual specificity protein kinase CLK1 (Homo sapiens) (UniProt P49759); details: Compound concentration 1000.0 nM
[19] = target: Tyrosine-protein kinase HCK (Homo sapiens) (UniProt P08631); details: Compound concentration 1000.0 nM
Sequence of Tyrosine-protein kinase HCK (Homo sapiens) (P08631 2-526 limits assumed): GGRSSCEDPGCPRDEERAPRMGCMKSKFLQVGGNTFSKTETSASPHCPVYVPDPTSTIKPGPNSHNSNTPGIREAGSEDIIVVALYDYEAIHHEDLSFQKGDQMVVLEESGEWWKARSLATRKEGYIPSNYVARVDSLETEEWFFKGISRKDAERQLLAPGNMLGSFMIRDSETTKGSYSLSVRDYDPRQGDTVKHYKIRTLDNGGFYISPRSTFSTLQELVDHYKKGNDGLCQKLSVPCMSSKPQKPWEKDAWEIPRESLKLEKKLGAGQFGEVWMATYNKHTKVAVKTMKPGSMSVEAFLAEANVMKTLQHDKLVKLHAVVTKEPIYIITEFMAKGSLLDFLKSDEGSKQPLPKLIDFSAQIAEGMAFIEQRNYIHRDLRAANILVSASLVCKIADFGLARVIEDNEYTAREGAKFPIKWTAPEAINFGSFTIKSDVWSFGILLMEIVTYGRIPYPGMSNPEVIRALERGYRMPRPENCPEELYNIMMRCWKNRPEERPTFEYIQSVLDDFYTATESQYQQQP

[20] = target: Serine/threonine-protein kinase N1 (Homo sapiens) (UniProt Q16512); details: Compound concentration 1000.0 nM
[21] = target: Sigma non-opioid intracellular receptor 1 (Homo sapiens) (UniProt Q99720); details: Compound concentration 10.0 uM
Sequence of Sigma non-opioid intracellular receptor 1 (Homo sapiens) (Q99720 whole entry): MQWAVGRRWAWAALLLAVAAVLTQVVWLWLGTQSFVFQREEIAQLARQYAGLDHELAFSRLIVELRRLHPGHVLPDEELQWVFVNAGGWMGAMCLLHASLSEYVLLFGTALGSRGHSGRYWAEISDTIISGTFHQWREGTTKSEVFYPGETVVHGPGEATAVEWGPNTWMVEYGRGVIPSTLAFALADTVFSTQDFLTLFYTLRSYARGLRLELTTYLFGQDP

[22] = target: T2, Alpha-2A adrenergic receptor (Homo sapiens) (UniProt P08913); details: Compound concentration 10.0 uM
T2 sequence (whole entry): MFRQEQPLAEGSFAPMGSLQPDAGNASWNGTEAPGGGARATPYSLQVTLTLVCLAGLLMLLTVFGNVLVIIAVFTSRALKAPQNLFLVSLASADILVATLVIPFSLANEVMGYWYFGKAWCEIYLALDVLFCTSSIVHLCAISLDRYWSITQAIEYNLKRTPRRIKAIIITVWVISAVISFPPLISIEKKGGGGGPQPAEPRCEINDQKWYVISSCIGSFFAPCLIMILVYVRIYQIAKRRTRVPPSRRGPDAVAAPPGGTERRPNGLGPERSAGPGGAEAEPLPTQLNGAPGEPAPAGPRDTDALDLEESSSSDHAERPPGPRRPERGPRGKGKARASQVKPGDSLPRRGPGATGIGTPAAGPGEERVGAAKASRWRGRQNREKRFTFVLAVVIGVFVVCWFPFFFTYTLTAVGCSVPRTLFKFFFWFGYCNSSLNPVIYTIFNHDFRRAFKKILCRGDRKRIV

[23] = test system: Phosphatidylinositol 4,5-bisphosphate 3-kinase catalytic subunit alpha isoform (Homo sapiens), P42336 [C420R]; details: Compound concentration 1000.0 nM
[24] = target: Mitogen-activated protein kinase 10 (Homo sapiens) (UniProt P53779); details: Compound concentration 1000.0 nM
[25] = test system: Epidermal growth factor receptor (Homo sapiens), P00533 [G719C]; details: Compound concentration 1000.0 nM
[26] = target: Ephrin type-A receptor 4 (Homo sapiens) (UniProt P54764); details: Compound concentration 1000.0 nM
[27] = target: Death-associated protein kinase 2 (Homo sapiens) (UniProt Q9UIK4); details: Compound concentration 1000.0 nM
[28] = target: Bone morphogenetic protein receptor type-1A (Homo sapiens) (UniProt P36894); details: Compound concentration 1000.0 nM
[29] = target: Macrophage colony-stimulating factor 1 receptor (Homo sapiens) (UniProt P07333); details: Compound concentration 1000.0 nM
[30] = target: Dual serine/threonine and tyrosine protein kinase (Homo sapiens) (UniProt Q6XUX3); details: Compound concentration 1000.0 nM
[31] = target: LIM domain kinase 1 (Homo sapiens) (UniProt P53667); details: Compound concentration 1000.0 nM
[32] = test system: Epidermal growth factor receptor (Homo sapiens), P00533 [L861Q]; details: Compound concentration 1000.0 nM

NS(=O)(=O)c1cc(NC(=O)C2(c3ccccc3Cl)CC2)ccc1Oc1cccc(Cl)c1 [BAY-207]
inactive: residual activity [1] 54% | inhibition [2] 4.89% | residual activity [3] 72% | residual activity [4] 96% | residual activity [5] 89% | residual activity [6] 89% | residual activity [7] 91% | residual activity [8] 74% | residual activity [9] 85% | inhibition [10] 14.7% | residual activity [11] 75% | residual activity [12] 100% | residual activity [13] 100% | inhibition [14] 3.19% | residual activity [15] 74% | residual activity [16] 79% | residual activity [17] 75% | residual activity [18] 59% | residual activity [19] 89% | residual activity [20] 100% | inhibition [21] 18.6% | inhibition [22] 40.8% | residual activity [23] 100% | residual activity [24] 100% | residual activity [25] 90% | residual activity [26] 100% | residual activity [27] 100% | residual activity [28] 90% | residual activity [29] 100% | residual activity [30] 93% | residual activity [31] 100% | residual activity [32] 76%

NS(=O)(=O)c1cc(NC(=O)Cc2ccccc2)ccc1Oc1cccc(Cl)c1 [BAY-1797]
inactive: residual activity [1] 100% | inhibition [2] -1.77% | residual activity [3] 73% | residual activity [4] 51% | residual activity [5] 78% | residual activity [6] 77% | residual activity [7] 68% | residual activity [8] 89% | residual activity [9] 83% | inhibition [10] 16.7% | residual activity [11] 84% | residual activity [12] 100% | residual activity [13] 80% | inhibition [14] 19.9% | residual activity [15] 78% | residual activity [16] 62% | residual activity [17] 84% | residual activity [18] 67% | residual activity [19] 54% | residual activity [20] 100% | inhibition [21] -8.2% | inhibition [22] 6.31% | residual activity [23] 62% | residual activity [24] 89% | residual activity [25] 63% | residual activity [26] 97% | residual activity [27] 90% | residual activity [28] 69% | residual activity [29] 51% | residual activity [30] 83% | residual activity [31] 87% | residual activity [32] 64%
